From US20230114728A1 (Venatorx Pharmaceuticals, Inc., priority 2019, published 2023)
In brackets after ≈: the same amount, converted by molar mass.

Legend:
Assay type in all cases: cell-based
E. coli ATCC 25922 = test: Broth microdilution MIC in CAMHB; conditions: Escherichia coli, ATCC25922; E. coli ATCC 25922; MHB; read-out: Minimum Inhibitory Concentration, E. coli 25922
Outline: (§1)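 CLSI microdilution; CAMHB; inoculum 2-8×10^5 CFU/mL from 3-5 h 37° C culture; 2-fold compound series; 16-20 h, 37° C; MIC = lowest well without visible growth.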

E. coli 901C = test: Broth microdilution MIC in CAMHB; conditions: Escherichia coli; E. coli 901C (hyper-permeable); MHB; read-out: Minimum Inhibitory Concentration, E. coli 901C
Outline: as §1

[1] = tested on: P. aeruginosa (ΔmexAB-oprM); test: Broth microdilution MIC in CAMHB; conditions: Pseudomonas aeruginosa, read-out: Minimum Inhibitory Concentration, P. aeruginosa ΔmexAB-OprM
Outline: as §1

E. coli AG100A = test: Broth microdilution MIC in CAMHB; conditions: Escherichia coli, read-out: Minimum Inhibitory Concentration, E. coli AG100A
Outline: as §1

[2] = tested on: K. pneumoniae UMM producing SHV-5 and KPC-2; test: Broth microdilution MIC in CAMHB; conditions: Klebsiella pneumoniae, read-out: Minimum Inhibitory Concentration, K. pneumoniae UMM
Outline: as §1

[3] = tested on: K. pneumoniae 848844 producing SHV-11 and KPC-2; test: Broth microdilution MIC in CAMHB; conditions: Klebsiella pneumoniae, read-out: Minimum Inhibitory Concentration, K. pneumoniae 848844
Outline: as §1

[4] = tested on: K. pneumoniae SI-117 producing VIM-1; test: Broth microdilution MIC in CAMHB; conditions: Klebsiella pneumoniae, read-out: Minimum Inhibitory Concentration, K. pneumoniae SI-117
Outline: as §1

E. coli D22 = test: Broth microdilution MIC in CAMHB; conditions: Escherichia coli; E. coli D22 (hyper-permeable); MHB; read-out: Minimum Inhibitory Concentration, E. coli D22
Outline: as §1

P. aeruginosa ATCC 35151 = test: Broth microdilution MIC in CAMHB; conditions: Pseudomonas aeruginosa, ATCC35151; MHB; hyper-permeable strain; read-out: Minimum Inhibitory Concentration, P. aeruginosa ATCC 35151
Outline: as §1

P. aeruginosa ATCC 27853 = test: Broth microdilution MIC in CAMHB; conditions: Pseudomonas aeruginosa, ATCC27853; MHB; read-out: Minimum Inhibitory Concentration, P. aeruginosa ATCC 27853
Outline: as §1

E. coli AG100 = test: Broth microdilution MIC in CAMHB; conditions: Escherichia coli; E. coli AG100 (wild-type parent); MHB; read-out: Minimum Inhibitory Concentration, E. coli AG100
Outline: as §1

A. baumannii ATCC 19606 = test: Broth microdilution MIC in CAMHB; conditions: Acinetobacter baumannii, ATCC19606; MHB; read-out: Minimum Inhibitory Concentration, A. baumannii ATCC 19606
Outline: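 Per CLSI broth microdilution, colonies were grown 3-5 h at 37° C in cation-adjusted Mueller Hinton broth, then diluted to a starting inoculum of 2-8×10^5 CFU/mL against 2-fold serial compound dilutions. Plates were incubated 16-20 h at 37° C, and MIC was read visually as the lowest concentration with no growth.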

N. gonorrhoeae WHO L = test: Liquid broth MIC in Fastidious broth; conditions: Neisseria gonorrhoeae; N. gonorrhoeae strain WHO L; Fastidious broth; read-out: Minimum Inhibitory Concentration, N. gonorrhoeae WHO L
Outline: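 Colonies were swabbed from chocolate agar after 24 h growth and standardised by optical density at 600 nm. Compounds were serially diluted twofold in Fastidious broth, and bacteria added to give 5×10^5 CFU/mL. After about 24 h at 36 °C in 5% CO2, the lowest concentration allowing under 10% growth was taken as MIC.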

| Compound | MIC (E. coli ATCC 25922) | MIC (E. coli 901C) | MIC [1] | MIC (E. coli AG100A) | MIC [2] | MIC [3] | MIC [4] | MIC (E. coli D22) | MIC (P. aeruginosa ATCC 35151) | MIC (P. aeruginosa ATCC 27853) | MIC (E. coli AG100) | MIC (A. baumannii ATCC 19606) | MIC (N. gonorrhoeae WHO L) |
| --- | --- | --- | --- | --- | --- | --- | --- | --- | --- | --- | --- | --- | --- |
| O=C(O)c1c(F)ccc2c1OB(O)[C@@H](NC(=O)C(NC(=O)N1CCN(CCF)C(=O)C1=O)c1c(F)cc(O)cc1F)C2 (stereo partly drawn) [Example 129, (3R)-3-(2-(2,6-difluoro-4-hydroxyphenyl)-2-(4-(2-fluoroethyl)-2,3-dioxopiperazine-1-carboxamido)acetamido)-7-fluoro-2-hydroxy-3,4-dihydro-2H-benzo[e][1,2]oxaborinine-8-carboxylic acid] | 32 to 64 µg/mL (≈ 53.7 to 107 µM) | 0.5 to 1 µg/mL (≈ 0.839 to 1.68 µM) | 32 to 64 µg/mL (≈ 53.7 to 107 µM) | 8 to 16 µg/mL (≈ 13.4 to 26.8 µM) | 32 to 64 µg/mL (≈ 53.7 to 107 µM) | 32 to 64 µg/mL (≈ 53.7 to 107 µM) | 32 to 64 µg/mL (≈ 53.7 to 107 µM) | 2 to 4 µg/mL (≈ 3.35 to 6.71 µM) | 0.5 to 1 µg/mL (≈ 0.839 to 1.68 µM) | > 128 µg/mL | 32 to 64 µg/mL (≈ 53.7 to 107 µM) | > 128 µg/mL | > 64 µg/mL |
| CCN1CCN(C(=O)NC(C(=O)N[C@H]2Cc3ccc(F)c(C(=O)O)c3OB2O)c2c(F)cc(O)cc2F)C(=O)C1=O (stereo partly drawn) [Example 130, (3R)-3-(2-(2,6-difluoro-4-hydroxyphenyl)-2-(4-ethyl-2,3-dioxopiperazine-1-carboxamido)acetamido)-7-fluoro-2-hydroxy-3,4-dihydro-2H-benzo[e][1,2]oxaborinine-8-carboxylic acid] | 32 to 64 µg/mL (≈ 55.3 to 111 µM) | < 0.25 µg/mL | 32 to 64 µg/mL (≈ 55.3 to 111 µM) | 8 to 16 µg/mL (≈ 13.8 to 27.7 µM) | 8 to 16 µg/mL (≈ 13.8 to 27.7 µM) | 32 to 64 µg/mL (≈ 55.3 to 111 µM) | 32 to 64 µg/mL (≈ 55.3 to 111 µM) | 2 to 4 µg/mL (≈ 3.46 to 6.92 µM) | < 0.25 µg/mL | > 128 µg/mL | 32 to 64 µg/mL (≈ 55.3 to 111 µM) | > 128 µg/mL | > 64 µg/mL |
| CCN1CCN(C(=O)NC(C(=O)N[C@H]2Cc3cccc(C(=O)O)c3OB2O)c2cc(F)c(C(=O)O)cc2F)C(=O)C1=O (stereo partly drawn) [Example 137, (3R)-3-(2-(4-carboxy-2,5-difluorophenyl)-2-(4-ethyl-2,3-dioxopiperazine-1-carboxamido)acetamido)-2-hydroxy-3,4-dihydro-2H-benzo[e][1,2]oxaborinine-8-carboxylic acid] | 32 to 64 µg/mL (≈ 54.4 to 109 µM) | < 0.25 µg/mL | 8 to 16 µg/mL (≈ 13.6 to 27.2 µM) | 8 to 16 µg/mL (≈ 13.6 to 27.2 µM) | 32 to 64 µg/mL (≈ 54.4 to 109 µM) | > 128 µg/mL | > 128 µg/mL | 8 to 16 µg/mL (≈ 13.6 to 27.2 µM) | 0.5 to 1 µg/mL (≈ 0.85 to 1.7 µM) | > 128 µg/mL | 32 to 64 µg/mL (≈ 54.4 to 109 µM) | > 128 µg/mL | 16 to 32 µg/mL (≈ 27.2 to 54.4 µM) |
| CCN1CCN(C(=O)NC(C(=O)N[C@H]2Cc3cccc(C(=O)O)c3OB2O)c2cc(Cl)c(C(=O)O)cc2F)C(=O)C1=O (stereo partly drawn) [Example 138, (3R)-3-(2-(4-carboxy-5-chloro-2-fluorophenyl)-2-(4-ethyl-2,3-dioxopiperazine-1-carboxamido)acetamido)-2-hydroxy-3,4-dihydro-2H-benzo[e][1,2]oxaborinine-8-carboxylic acid] | 32 to 64 µg/mL (≈ 52.9 to 106 µM) | < 0.25 µg/mL | 32 to 64 µg/mL (≈ 52.9 to 106 µM) | 8 to 16 µg/mL (≈ 13.2 to 26.5 µM) | 32 to 64 µg/mL (≈ 52.9 to 106 µM) | > 128 µg/mL | > 128 µg/mL | 2 to 4 µg/mL (≈ 3.31 to 6.61 µM) | 0.5 to 1 µg/mL (≈ 0.827 to 1.65 µM) | > 128 µg/mL | 32 to 64 µg/mL (≈ 52.9 to 106 µM) | > 128 µg/mL | 16 to 32 µg/mL (≈ 26.5 to 52.9 µM) |
| CCN1CCN(C(=O)NC(C(=O)N[C@H]2Cc3cccc(C(=O)O)c3OB2O)c2cc(F)c(C(=O)O)c(F)c2)C(=O)C1=O (stereo partly drawn) [Example 141, (3R)-3-(2-(4-carboxy-3,5-difluorophenyl)-2-(4-ethyl-2,3-dioxopiperazine-1-carboxamido)acetamido)-2-hydroxy-3,4-dihydro-2H-benzo[e][1,2]oxaborinine-8-carboxylic acid] | 32 to 64 µg/mL (≈ 54.4 to 109 µM) | < 0.25 µg/mL | 32 to 64 µg/mL (≈ 54.4 to 109 µM) | 2 to 4 µg/mL (≈ 3.4 to 6.8 µM) | 32 to 64 µg/mL (≈ 54.4 to 109 µM) | > 128 µg/mL | > 128 µg/mL | 2 to 4 µg/mL (≈ 3.4 to 6.8 µM) | < 0.25 µg/mL | > 128 µg/mL | 32 to 64 µg/mL (≈ 54.4 to 109 µM) | > 128 µg/mL | 4 to 8 µg/mL (≈ 6.8 to 13.6 µM) |
| NCCN1CCN(C(=O)NC(C(=O)N[C@H]2Cc3cccc(C(=O)O)c3OB2O)c2ccc(C(=O)O)cc2O)C(=O)C1=O (stereo partly drawn) [Example 142, (3R)-3-(2-(4-(2-aminoethyl)-2,3-dioxopiperazine-1-carboxamido)-2-(4-carboxy-2-hydroxyphenyl)acetamido)-2-hydroxy-3,4-dihydro-2H-benzo[e][1,2]oxaborinine-8-carboxylic acid] | > 128 µg/mL | 2 to 4 µg/mL (≈ 3.43 to 6.86 µM) | > 128 µg/mL | 32 to 64 µg/mL (≈ 54.9 to 110 µM) | 32 to 64 µg/mL (≈ 54.9 to 110 µM) | > 128 µg/mL | > 128 µg/mL | 8 to 16 µg/mL (≈ 13.7 to 27.4 µM) | 2 to 4 µg/mL (≈ 3.43 to 6.86 µM) | > 128 µg/mL | 32 to 64 µg/mL (≈ 54.9 to 110 µM) | > 128 µg/mL | > 64 µg/mL |
| CCN1CCN(C(=O)NC(C(=O)N[C@H]2Cc3cccc(C(=O)O)c3OB2O)c2ccc(C(=O)O)cc2F)C(=O)C1=O (stereo partly drawn) [Example 145, (3R)-3-(2-(4-carboxy-2-fluorophenyl)-2-(4-ethyl-2,3-dioxopiperazine-1-carboxamido)acetamido)-2-hydroxy-3,4-dihydro-2H-benzo[e][1,2]oxaborinine-8-carboxylic acid] | 32 to 64 µg/mL (≈ 56.1 to 112 µM) | < 0.25 µg/mL | 8 to 16 µg/mL (≈ 14 to 28.1 µM) | 8 to 16 µg/mL (≈ 14 to 28.1 µM) | 32 to 64 µg/mL (≈ 56.1 to 112 µM) | > 128 µg/mL | > 128 µg/mL | 2 to 4 µg/mL (≈ 3.51 to 7.01 µM) | < 0.25 µg/mL | > 128 µg/mL | 32 to 64 µg/mL (≈ 56.1 to 112 µM) | > 128 µg/mL | 16 to 32 µg/mL (≈ 28.1 to 56.1 µM) |
| CCN1CCN(C(=O)NC(C(=O)N[C@H]2Cc3cccc(C(=O)O)c3OB2O)c2c(Cl)cc(C(=O)O)cc2Cl)C(=O)C1=O (stereo partly drawn) [Example 150, (3R)-3-(2-(4-carboxy-2,6-dichlorophenyl)-2-(4-ethyl-2,3-dioxopiperazine-1-carboxamido)acetamido)-2-hydroxy-3,4-dihydro-2H-benzo[e][1,2]oxaborinine-8-carboxylic acid] | > 128 µg/mL | < 0.25 µg/mL | > 128 µg/mL | 32 to 64 µg/mL (≈ 51.5 to 103 µM) | > 128 µg/mL | > 128 µg/mL | > 128 µg/mL | 2 to 4 µg/mL (≈ 3.22 to 6.44 µM) | 0.5 to 1 µg/mL (≈ 0.805 to 1.61 µM) | > 128 µg/mL | > 128 µg/mL | > 128 µg/mL | > 64 µg/mL |
| NCCN1CCN(C(=O)NC(C(=O)N[C@H]2Cc3cccc(C(=O)O)c3OB2O)c2ccc(C(=O)O)c(Cl)c2)C(=O)C1=O (stereo partly drawn) [Example 153, (3R)-3-(2-(4-(2-aminoethyl)-2,3-dioxopiperazine-1-carboxamido)-2-(4-carboxy-3-chlorophenyl)acetamido)-2-hydroxy-3,4-dihydro-2H-benzo[e][1,2]oxaborinine-8-carboxylic acid] | 32 to 64 µg/mL (≈ 53.2 to 106 µM) | 0.5 to 1 µg/mL (≈ 0.831 to 1.66 µM) | 8 to 16 µg/mL (≈ 13.3 to 26.6 µM) | 8 to 16 µg/mL (≈ 13.3 to 26.6 µM) | 32 to 64 µg/mL (≈ 53.2 to 106 µM) | > 128 µg/mL | > 128 µg/mL | 2 to 4 µg/mL (≈ 3.32 to 6.65 µM) | 0.5 to 1 µg/mL (≈ 0.831 to 1.66 µM) | 32 to 64 µg/mL (≈ 53.2 to 106 µM) | 32 to 64 µg/mL (≈ 53.2 to 106 µM) | > 128 µg/mL | > 64 µg/mL |
